{
  "source": "patent US9265731B2",
  "about": "“Drying of drug-containing particles” (Bend Research, Inc., priority 2005, dated 2016)",
  "test": "In vitro dissolution test (microcentrifuge, PBS pH 6.5, 37° C., HPLC)",
  "type": "physicochemical",
  "conditions": "for Drug 1 Concentration: PBS pH 6.5, 290 mOsm/kg, 37° C., 1000 μg/mL if all drug dissolved",
  "description": "A sample of the solid amorphous dispersion used in Example 4 was evaluated before and after secondary drying in an in vitro dissolution test to determine the effect of drying on concentration enhancement relative to the crystalline form of Drug 1. As a control, Control 5 consisted of crystalline Drug 1 alone. For this test, a sufficient amount of Dispersion 1 and Control 5 material was added to microcentrifuge test tubes so that the concentration of Drug 1 would have been 1000 μg/mL in both cases if all of the drug had dissolved. The test was performed in duplicate. The tubes were placed in a 37° C. temperature-controlled chamber, and 1.8 mL PBS at pH 6.5 and 290 mOsm/kg was added to each tube. The samples were mixed using a vortex mixer for about 60 seconds. The samples were centrifuged at 13,000 G at 37° C. for 1 minute. The resulting supernatant solution was then sampled and diluted 1:6 (by volume) with methanol and then analyzed by high performance liquid chromatography (HPLC). The contents of each tube were mixed on the vortex mixer and allowed to stand undisturbed at 37° C. until the next sample was taken. Samples were collected at 4, 10, 20, 40, 90, and 1200 minutes.\nThe concentrations of drug obtained in these samples were used to determine the maximum concentration of drug (MDC90) and the area under the concentration-versus-time curve (AUC90) during the initial ninety minutes.",
  "key": {"[1]": {"conditions": "PBS pH 6.5, 37° C., initial 90 min"}},
  "data": [
    {"smiles": "CCOC(=O)N1c2ccc(C(F)(F)F)cc2[C@@H](N(Cc2cc(C(F)(F)F)cc(C(F)(F)F)c2)C(=O)OC)C[C@H]1CC", "note": "[Control 5, [2R,4S]4-[(3,5-bistrifluoromethyl-benzyl)-methoxycarbonyl-amino]-2-ethyl-6-trifluoromethyl-3,4-dihydro-2H-quinoline-1-carboxylic acid ethyl ester]", "values": [
      {"measurement": "AUC90 (area under the concentration-versus-time curve during the initial ninety minutes)", "setting": "[1]", "result": "<88", "unit": "µg·min/mL"},
      {"measurement": "MDC90 (maximum concentration of drug during the initial ninety minutes)", "setting": "[1]", "result": "<1", "unit": "µg/mL"},
      {"measurement": "AUC", "setting": "time 0 min, PBS pH 6.5, 37° C.", "result": 0, "unit": "µg·min/mL"},
      {"measurement": "Drug 1 Concentration", "setting": "time 0 min", "result": 0, "unit": "µg/mL"},
      {"measurement": "AUC", "setting": "time 4 min, PBS pH 6.5, 37° C.", "result": "<2", "unit": "µg·min/mL"},
      {"measurement": "Drug 1 Concentration", "setting": "time 4 min", "result": "<1", "unit": "µg/mL"},
      {"measurement": "AUC", "setting": "time 10 min, PBS pH 6.5, 37° C.", "result": "<8", "unit": "µg·min/mL"},
      {"measurement": "Drug 1 Concentration", "setting": "time 10 min", "result": "<1", "unit": "µg/mL"},
      {"measurement": "AUC", "setting": "time 20 min, PBS pH 6.5, 37° C.", "result": "<18", "unit": "µg·min/mL"},
      {"measurement": "Drug 1 Concentration", "setting": "time 20 min", "result": "<1", "unit": "µg/mL"},
      {"measurement": "AUC", "setting": "time 40 min, PBS pH 6.5, 37° C.", "result": "<38", "unit": "µg·min/mL"},
      {"measurement": "Drug 1 Concentration", "setting": "time 40 min", "result": "<1", "unit": "µg/mL"},
      {"measurement": "AUC", "setting": "time 90 min, PBS pH 6.5, 37° C.", "result": "<88", "unit": "µg·min/mL"},
      {"measurement": "Drug 1 Concentration", "setting": "time 90 min", "result": "<1", "unit": "µg/mL"},
      {"measurement": "AUC", "setting": "time 1200 min, PBS pH 6.5, 37° C.", "result": "<1,200 min*μg/mL"},
      {"measurement": "Drug 1 Concentration", "setting": "time 1200 min", "result": "<1", "unit": "µg/mL"}
    ]}
  ]
}
